Data as given in patent US7981920B2, “Addition salts of angiotensin-converting enzyme inhibitors with no donor acids, a process for their preparation and pharmaceutical compositions containing them” (Les Laboratoires Servier, priority 2007, dated 2011).

What was measured:
[1] = test system: Aorta rings without endothelium; assay: NO donor activity in vitro: relaxation of noradrenaline-contracted aorta rings; format: cell-based; conditions: stable contraction induced by noradrenaline (0.1-0.3 μM), read-out: IC50 (dose that inhibits the maximum effect by 50%), relaxing effect
Experimental: Aorta rings without endothelium are used. After a first contraction induced by 60 mM KCl to characterise the sensitivity of the ring, and washing, a stable contraction is induced by noradrenaline (0.1-0.3 μM) in the presence or absence of a guanylate cyclase inhibitor, ODQ (10 μM). A cumulative concentration series is applied and the activity of the product under test is calculated by an IC50 (dose that inhibits the maximum effect by 50%).

[2] = target: T1, Angiotensin 1-Converting Enzyme (Rattus norvegicus, UniProt P47820); assay: Activity inhibiting angiotensin 1-converting enzyme in vivo: hypertensive response to angiotensin I in anaesthetised rats; conditions: dose of 0.1 mg/kg, given 60 minutes prior to anaesthesia, angiotensin I i.v. 1.5 μg/kg
T1 construct: from tissue; host or cells: whole living rat (in vivo; endogenous enzyme)
T1 sequence (P47820 36-1313): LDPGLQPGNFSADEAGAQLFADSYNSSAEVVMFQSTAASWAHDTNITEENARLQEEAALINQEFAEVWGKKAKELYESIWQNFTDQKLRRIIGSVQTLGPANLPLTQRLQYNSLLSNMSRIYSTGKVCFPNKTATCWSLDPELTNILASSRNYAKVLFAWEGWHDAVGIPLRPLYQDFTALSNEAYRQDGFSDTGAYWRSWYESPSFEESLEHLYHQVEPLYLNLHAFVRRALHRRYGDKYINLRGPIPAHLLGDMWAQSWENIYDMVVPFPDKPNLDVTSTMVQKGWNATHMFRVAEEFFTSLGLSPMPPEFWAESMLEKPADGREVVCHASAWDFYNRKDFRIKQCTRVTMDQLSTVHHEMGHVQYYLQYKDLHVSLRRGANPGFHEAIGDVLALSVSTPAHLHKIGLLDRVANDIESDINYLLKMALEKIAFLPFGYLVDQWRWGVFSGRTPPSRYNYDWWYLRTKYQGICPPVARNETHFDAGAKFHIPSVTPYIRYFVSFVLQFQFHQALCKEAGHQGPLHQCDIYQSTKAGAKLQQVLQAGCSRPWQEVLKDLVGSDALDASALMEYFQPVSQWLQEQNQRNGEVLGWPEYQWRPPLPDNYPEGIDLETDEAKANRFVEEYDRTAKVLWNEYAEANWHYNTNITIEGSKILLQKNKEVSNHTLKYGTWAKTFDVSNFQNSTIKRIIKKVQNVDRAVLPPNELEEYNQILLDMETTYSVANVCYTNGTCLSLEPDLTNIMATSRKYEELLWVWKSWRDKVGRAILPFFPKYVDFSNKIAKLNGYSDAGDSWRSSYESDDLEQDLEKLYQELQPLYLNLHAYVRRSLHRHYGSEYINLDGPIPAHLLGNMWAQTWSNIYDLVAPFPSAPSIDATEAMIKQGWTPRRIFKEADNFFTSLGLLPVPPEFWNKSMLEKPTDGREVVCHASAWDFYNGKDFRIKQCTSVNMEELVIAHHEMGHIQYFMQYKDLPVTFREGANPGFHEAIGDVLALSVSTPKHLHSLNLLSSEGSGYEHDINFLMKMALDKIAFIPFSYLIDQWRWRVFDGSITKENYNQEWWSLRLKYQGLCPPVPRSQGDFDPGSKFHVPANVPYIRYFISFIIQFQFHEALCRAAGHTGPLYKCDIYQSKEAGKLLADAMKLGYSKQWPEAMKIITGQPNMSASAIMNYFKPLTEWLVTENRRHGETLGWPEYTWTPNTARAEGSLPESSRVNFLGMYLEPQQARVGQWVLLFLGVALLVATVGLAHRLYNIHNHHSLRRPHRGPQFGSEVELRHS
Experimental: Rats are anaesthetised with pentobarbital and placed under artificial respiration, and the average arterial pressure is measured by a catheter that has been placed in the femoral artery and is connected to a pressure sensor. The vagus nerves are divided into sections and mecamilamine (sympathetic ganglion blocker) is injected i.v. at 1.5 mg/kg. After stabilisation, angiotensin I is injected i.v. at 1.5 μg/kg.
The maximum hypertensive response to angiotensin I is measured in rats that, 60 minutes prior to anaesthesia, have received by the oral route either Senegal gum alone (control group), or the compound under test in Senegal gum. The inhibitory effect is determined as a percentage from the response to angiotensin I compared with the control group.

Substance	IC50 [1] [nM]	angiotensin I inhibition (inhibition of maximum hypertensive response to angiotensin I compared with control group) [2] [%]
(2S)-2-[(3-{[5-Oxido-4-(phenylsulphonyl)-1,2,5-oxadiazol-3-yl]-oxy}-propionyl)-amino]-succinic Acid-(2S,3aS,7aS)-1-[(2S)-2-{[(1S)-1-(ethoxycarbonyl)-butyl]-amino}-propionyl]-octahydro-1H-indole-2-carboxylic Acid (1:1) [Example 1]	48	85
(2S,3aS,7aS)-1-[(2S)-2-{[(1S)-1-(Ethoxycarbonyl)-butyl]-amino}-propionyl]-octahydro-1H-indole-2-carboxylic acid-{[(3-{[5-oxido-4-(phenylsulphonyl)-1,2,5-oxadiazol-3-yl]-oxy}-propionyl)-amino]-methyl}-phosphonic acid (1:1) [Example 7]	47	88
